The target of test [1] is T1, Vitamin D3 receptor (Homo sapiens, UniProt P11473).
T1 sequence (P11473 whole entry): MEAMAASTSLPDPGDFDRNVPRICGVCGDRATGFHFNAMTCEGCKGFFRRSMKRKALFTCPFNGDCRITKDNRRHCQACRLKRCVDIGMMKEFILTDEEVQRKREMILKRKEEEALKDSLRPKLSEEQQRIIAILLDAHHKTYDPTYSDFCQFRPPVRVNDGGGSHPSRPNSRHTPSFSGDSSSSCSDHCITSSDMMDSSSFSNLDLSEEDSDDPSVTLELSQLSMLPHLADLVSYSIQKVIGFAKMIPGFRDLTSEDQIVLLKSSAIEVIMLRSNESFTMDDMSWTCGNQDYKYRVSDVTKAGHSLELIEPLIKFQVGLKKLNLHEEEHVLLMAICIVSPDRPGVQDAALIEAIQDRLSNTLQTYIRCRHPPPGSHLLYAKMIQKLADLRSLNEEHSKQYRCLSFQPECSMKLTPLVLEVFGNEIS
In words: Inhibition of VDR (unknown origin) interaction to SRC2-3 peptide by fluorescence polarization assay.

The subject of test [2] is HepG2. In words: Cytotoxicity against human HepG2 cells assessed as ATP level after 72 hrs by CellTiter-Glo assay. Conditions: HepG2, 72 h. The class given is cell-based.
Test [3] concerns the target T2, Thyroid hormone receptor alpha (Homo sapiens, UniProt P10827).
T2 sequence (P10827 whole entry): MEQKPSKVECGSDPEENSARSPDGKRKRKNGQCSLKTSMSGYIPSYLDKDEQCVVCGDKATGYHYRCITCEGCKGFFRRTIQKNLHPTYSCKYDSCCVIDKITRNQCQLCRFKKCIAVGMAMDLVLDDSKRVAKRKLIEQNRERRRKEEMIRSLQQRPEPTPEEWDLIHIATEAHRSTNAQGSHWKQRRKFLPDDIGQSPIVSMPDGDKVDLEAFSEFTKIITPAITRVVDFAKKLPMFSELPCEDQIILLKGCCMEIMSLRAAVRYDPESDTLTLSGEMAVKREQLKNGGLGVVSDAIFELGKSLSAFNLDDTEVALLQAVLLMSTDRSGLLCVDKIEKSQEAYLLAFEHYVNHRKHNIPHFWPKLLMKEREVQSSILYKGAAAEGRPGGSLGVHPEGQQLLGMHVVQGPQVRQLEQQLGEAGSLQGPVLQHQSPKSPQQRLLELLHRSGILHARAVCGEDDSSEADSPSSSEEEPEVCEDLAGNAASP
In words: Inhibition of TRalpha-LBD (unknown origin) interaction to texas red-labeled SRC2-2 peptide by fluorescence polarization assay. (Fluorescence polarisation rises when a labelled molecule tumbles more slowly, as on binding a larger partner.)

Test [4] concerns the target T3, Thyroid hormone receptor beta (Homo sapiens, UniProt P10828).
T3 sequence (P10828 whole entry): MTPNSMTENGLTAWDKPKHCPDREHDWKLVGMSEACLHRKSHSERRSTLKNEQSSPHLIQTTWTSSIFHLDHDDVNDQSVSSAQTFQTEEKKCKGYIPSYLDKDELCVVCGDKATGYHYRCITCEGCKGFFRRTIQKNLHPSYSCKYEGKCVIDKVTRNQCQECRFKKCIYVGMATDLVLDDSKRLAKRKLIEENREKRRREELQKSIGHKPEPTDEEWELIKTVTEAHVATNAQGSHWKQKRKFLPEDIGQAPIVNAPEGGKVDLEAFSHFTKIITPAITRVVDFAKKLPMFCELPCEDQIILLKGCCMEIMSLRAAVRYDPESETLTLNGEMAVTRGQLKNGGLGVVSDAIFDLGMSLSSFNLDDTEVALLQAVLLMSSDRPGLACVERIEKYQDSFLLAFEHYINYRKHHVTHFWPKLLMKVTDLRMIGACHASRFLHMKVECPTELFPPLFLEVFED
In words: Inhibition of TRbeta-LBD (unknown origin) interaction to texas red-labeled SRC2-2 peptide by fluorescence polarization assay.

Some results are limits rather than exact numbers.

IC50 and EC50 data for 32 compounds are collected here from ChEMBL document CHEMBL2346513, “Synthesis and evaluation of methylsulfonylnitrobenzamides (MSNBAs) as inhibitors of the thyroid hormone receptor-coactivator interaction” (Bioorg Med Chem Lett, 2013).

Usually IC50 stands for the midpoint of a concentration-inhibition curve. By EC50 is commonly meant the concentration giving half of the maximal effect.

As for `CN(Cc1cccc(F)c1)C(=O)CNC(=O)c1ccc(S(C)(=O)=O)c([N+](=O)[O-])c1`, the IC50 in test [1], in test [3] and in test [4] was above 60 µM in each case. Besides, the concentration giving a half-maximal response (EC50) in test [2] is above 27 µM.

For the compound `CC1CCN(C(=O)CN(C)C(=O)c2ccc(S(C)(=O)=O)c([N+](=O)[O-])c2)CC1`, the IC50 in test [1], in test [3] and in test [4] was above 60 µM each time. In addition, the EC50 in test [2] was above 27 µM.

In the case of `CC1Cc2ccccc2N1C(=O)CCNC(=O)c1ccc(S(C)(=O)=O)c([N+](=O)[O-])c1` (stereo not drawn), the IC50 in test [1] was 55 µM; in test [3] it was above 60 µM; in test [4], above 60 µM. In addition, in test [2], the EC50 was above 27 µM.

Consider `CC(C)N(C(=O)CCNC(=O)c1ccc(S(C)(=O)=O)c([N+](=O)[O-])c1)C(C)C`, for which the IC50 in test [1], in test [3] and in test [4] was above 60 µM in each case. In addition, the EC50 in test [2] was above 27 µM.

For `CS(=O)(=O)c1ccc(C(=O)NCCC(=O)N2CCc3ccccc32)cc1[N+](=O)[O-]`, the IC50 in test [1], in test [3] and in test [4] was above 60 µM in each case. For the same compound, the EC50 in test [2] is above 27 µM.

As for `CC1CCN(C(=O)CCCNC(=O)c2ccc(S(C)(=O)=O)c([N+](=O)[O-])c2)CC1`, the IC50 in test [1], in test [3] and in test [4] was above 60 µM each time. Besides, the EC50 in test [2] is above 27 µM.

Turning to `CCCN(C(=O)CN(C)C(=O)c1ccc(S(C)(=O)=O)c([N+](=O)[O-])c1)c1ccccc1`, the 50% inhibitory concentration (IC50) in test [1], in test [3] and in test [4] was above 60 µM in each case. Moreover, the EC50 in test [2] is above 27 µM.

With `CS(=O)(=O)c1ccc(C(=O)N2CCC(C(=O)N3CCN(c4ccccc4)CC3)CC2)cc1[N+](=O)[O-]`, the IC50 in test [1], in test [3] and in test [4] was above 60 µM each time. The EC50 in test [2] is above 27 µM.

As to `CN(Cc1ccccc1F)C(=O)CNC(=O)c1ccc(S(C)(=O)=O)c([N+](=O)[O-])c1`, the results for the IC50 in test [1], in test [3] and in test [4] were above 60 µM, above 60 µM and 24 µM, respectively. In addition, the EC50 in test [2] was 11.4 µM.

For `CS(=O)(=O)c1ccc(C(=O)NCCC(=O)N2CCN(c3ccc(F)cc3)CC2)cc1[N+](=O)[O-]`, the IC50 in test [1], in test [3] and in test [4] was above 60 µM throughout. In addition, the concentration giving a half-maximal response (EC50) in test [2] was above 27 µM.

In the case of `CN(Cc1ccccc1)C(=O)CN(C)C(=O)c1ccc(S(C)(=O)=O)c([N+](=O)[O-])c1`, the IC50 in test [1], in test [3] and in test [4] was above 60 µM each time. Further, the EC50 in test [2] is above 27 µM.

As to `CS(=O)(=O)c1ccc(C(=O)NCCCC(=O)N2Cc3ccccc3C2)cc1[N+](=O)[O-]`, the IC50 in test [1], in test [3] and in test [4] was above 60 µM each time. In test [2], the EC50 was above 27 µM.

With `CS(=O)(=O)c1ccc(C(=O)NCCC(=O)N(Cc2ccccc2)Cc2ccccc2)cc1[N+](=O)[O-]`, the IC50 was 38 µM in test [1], 33 µM in test [3] and above 60 µM in test [4]. Further, in test [2], the EC50 was above 27 µM.

On to `CS(=O)(=O)c1ccc(C(=O)NCC(=O)N2CCc3ccccc3C2)cc1[N+](=O)[O-]`, for which the results for the IC50 in test [1], in test [3] and in test [4] were 50 µM, above 60 µM and 46 µM, respectively. The EC50 in test [2] was above 27 µM.

For `CN(Cc1ccccc1)C(=O)CCNC(=O)c1ccc(S(C)(=O)=O)c([N+](=O)[O-])c1`, the half-inhibitory concentration (IC50) in test [1], in test [3] and in test [4] was above 60 µM throughout. The concentration for a half-maximal effect (EC50) in test [2] was above 27 µM.

As to `CS(=O)(=O)c1ccc(C(=O)NCCC(=O)NC23CC4CC(CC(C4)C2)C3)cc1[N+](=O)[O-]`, the IC50 in test [1] came out at 44 µM; in test [3] it was 25 µM; in test [4], 31 µM. Further, the EC50 in test [2] is above 27 µM.

Turning to `CN(CC(=O)NC12CC3CC(CC(C3)C1)C2)C(=O)c1ccc(S(C)(=O)=O)c([N+](=O)[O-])c1`, the IC50 in test [1], in test [3] and in test [4] was above 60 µM each time. In addition, in test [2], the EC50 was above 27 µM.

As for `CN(CC(=O)N1CCN(c2ccc(C(F)(F)F)cc2)CC1)C(=O)c1ccc(S(C)(=O)=O)c([N+](=O)[O-])c1`, the IC50 in test [1], in test [3] and in test [4] was above 60 µM each time. Besides, the EC50 in test [2] stood at 11.9 µM.

On to `CS(=O)(=O)c1ccc(C(=O)NCCC(=O)N2CCN(c3ccccc3F)CC2)cc1[N+](=O)[O-]`, for which the IC50 in test [1] is 66 µM; in test [3] it was above 60 µM; in test [4], above 60 µM. Besides, in test [2], the concentration giving a half-maximal response (EC50) was above 27 µM.

As for `CS(=O)(=O)c1ccc(C(=O)NCC(=O)N2CCCCC2)cc1[N+](=O)[O-]`, the IC50 in test [1] was above 60 µM; in test [3], 44 µM; in test [4], above 60 µM. In addition, the EC50 in test [2] is 14 µM.

Take `CS(=O)(=O)c1ccc(C(=O)NCC(=O)N2CCN(c3ccccc3F)CC2)cc1[N+](=O)[O-]`: the IC50 in test [1], in test [3] and in test [4] was above 60 µM each time. Moreover, the EC50 in test [2] was above 27 µM.

With `CN(Cc1ccccc1F)C(=O)CCNC(=O)c1ccc(S(C)(=O)=O)c([N+](=O)[O-])c1`, the IC50 in test [1], in test [3] and in test [4] was above 60 µM throughout. In addition, the EC50 in test [2] was above 27 µM.

`CS(=O)(=O)c1ccc(C(=O)NCCCC(=O)NC23CC4CC(CC(C4)C2)C3)cc1[N+](=O)[O-]`: the IC50 was above 60 µM in test [1], above 60 µM in test [3] and 10.6 µM in test [4]. In test [2], the EC50 was above 27 µM.

`CN(Cc1ccccc1F)C(=O)C1CCN(C(=O)c2ccc(S(C)(=O)=O)c([N+](=O)[O-])c2)CC1`: the IC50 in test [1], in test [3] and in test [4] was above 60 µM each time. Also, in test [2], the EC50 is above 27 µM.

Consider `CS(=O)(=O)c1ccc(C(=O)NCC(=O)N2CCN(c3ccc(C(F)(F)F)cc3)CC2)cc1[N+](=O)[O-]`, for which the IC50 in test [1], in test [3] and in test [4] was above 60 µM throughout. For the same compound, in test [2], the EC50 is above 27 µM.

Turning to `CN(C(=O)CCCNC(=O)c1ccc(S(C)(=O)=O)c([N+](=O)[O-])c1)c1ccccc1`, the IC50 in test [1], in test [3] and in test [4] was above 60 µM throughout. In test [2], the EC50 was above 27 µM.

As for `CS(=O)(=O)c1ccc(C(=O)NCCC(=O)N2CCCc3ccccc32)cc1[N+](=O)[O-]`, the IC50 in test [1], in test [3] and in test [4] was above 60 µM throughout. In test [2], the EC50 is 10.5 µM.

With `CS(=O)(=O)c1ccc(C(=O)NCCC(=O)N2CCc3ccccc3C2)cc1[N+](=O)[O-]`, the IC50 in test [1], in test [3] and in test [4] was above 60 µM in each case. For the same compound, the EC50 in test [2] was above 27 µM.

In the case of `CC1Cc2ccccc2N1C(=O)CCCNC(=O)c1ccc(S(C)(=O)=O)c([N+](=O)[O-])c1` (stereo not drawn), the 50% inhibitory concentration (IC50) in test [1], in test [3] and in test [4] was above 60 µM in each case. Besides, in test [2], the EC50 was above 27 µM.

`CN(C(=O)CCNC(=O)c1ccc(S(C)(=O)=O)c([N+](=O)[O-])c1)c1ccccc1`: the IC50 in test [1] was above 60 µM; in test [3], 37 µM; in test [4], above 60 µM. In test [2], the EC50 is above 27 µM.

Take `CN(Cc1ccccc1)C(=O)C1CCN(C(=O)c2ccc(S(C)(=O)=O)c([N+](=O)[O-])c2)CC1`: the half-maximal inhibitory concentration (IC50) in test [1], in test [3] and in test [4] was above 60 µM throughout. The EC50 in test [2] is above 27 µM.

For `CS(=O)(=O)c1ccc(C(=O)NCCC(=O)N2CCN(c3ccc(C(F)(F)F)cc3)CC2)cc1[N+](=O)[O-]`, the half-maximal inhibitory concentration (IC50) in test [1], in test [3] and in test [4] was above 60 µM each time. Moreover, the half-maximal effective concentration (EC50) in test [2] is above 27 µM.
